According to US11485736B2 (KSQ Therapeutics, Inc., priority 2018, dated 2022):
Read-outs that look alike come from different tables or passages of the source.

Key:
[1] = Liver microsomal stability, human liver microsomes; type: in vitro ADME; conditions: 1 μM compound, NADPH, read-out: t1/2 (min) in HLM
Description: (§1) Certain Compounds of the Disclosure were assessed for ADME metabolic stability in human liver microsomes (HLM) and rat liver microsomes (RLM).
(§2) Samples were prepared by adding 222.5 μL of a master solution (100 mM phosphate buffer and 1 mg/mL liver microsomes (HLM or RLM)) and 25 μL of a 10 mM NADPH solution to incubation plates, which were then warmed for 10 min. Each compound was separately dissolved in DMSO to prepare 10 mM stock solutions, which were then diluted to 100 μM with acetonitrile. A reaction was started by adding 2.5 μL of the 100 μM solution of each compound to separate incubation plates such that the final concentration of for each compound in each plate was 1 μM.
(§3) 25 μL aliquots of each sample were taken at 0.5, 5, 10, 15, 20 and 30 minutes, and the reaction was stopped by adding 5 volumes of cold acetonitrile with IS (100 nM alprazolam, 200 nM caffeine and 100 nM tolbutamide). The samples were then centrifuged at 3,220 G for 30 minutes, and 100 μL of the supernatant fluid was mixed with 100 μL of ultra-pure H2O.
(§4) The samples were then analyzed by LC-MS/MS. Peak areas were determined from extracted ion chromatograms. Slope values (k) were determined by linear regression of the natural logarithm of the remaining percentage of the compound vs. incubation time curve. […] The in vitro half-life (min) was converted into the in vitro intrinsic clearance (in vitro CLint, in μL/min/mg protein) using the following equation: […]

[2] = ADME solubility determination at pH 2.0 and pH 7.4; type: physicochemical; conditions: aqueous buffer, thermodynamic from solid, LC-MS/MS
Description: Certain Compounds of the Disclosure were assessed for ADME solubility at pH 2.0 and pH 7.4.
Stock solutions were prepared by adding each compound to DMSO at a concentration of 10 mM. Samples were prepared by adding 50 μL of each stock solution to separate vials. The vials were loaded onto a 96-well rack and dried. 500 μL of Phosphate Buffered Saline (PBS) pH 7.4 or PBS pH 2.0 were added into each vial. The vials were then shaken at 25° C. and 1,100 rpm for 24 hours.
After 24 hours, the vials were centrifuged at 3220 G and 25° C. for 30 minutes. The supernatant fluid was analyzed by LC-MS/MS against a standard of known concentration. The solubility of each sample was then calculated using the equation below:
[formula] where DF is the dilution factor.

[3] = Liver microsomal stability, rat liver microsomes; type: in vitro ADME; conditions: 1 μM compound, NADPH, read-out: t1/2 (min) in RLM
Description: as §1, §2, §3, §4

[4] = PBS pH 2.0, shaken at 25° C. for 24 hours, read-out: Solubility at pH 2.0
[5] = PBS pH 7.4, shaken at 25° C. for 24 hours, read-out: Solubility at pH 7.4

| SMILES | half-life at 1 μM [1] | solubility at 24 h [2, 4] | solubility at 24 h [2, 5] | half-life at 1 μM [3] |
| --- | --- | --- | --- | --- |
| COc1cc(Cn2ncc3cnc(-c4c(OC)ncnc4C4CC4)nc32)ccc1-c1cn(C)c(C(F)(F)F)n1 [Example 35] | > 25 min | < 10 µM | < 10 µM | > 25 min |
| COc1ncnc(C2CC2)c1-c1ncc2cnn([C@@H](C)c3ccc(-c4nc(C(F)(F)F)cn4C)cc3)c2n1 (single isomer, unassigned) [Example 92] | < 25 min | > 10 µM | > 10 µM | > 25 min |
| CCn1cc(C(F)(F)F)nc1-c1ccc(Cn2ncc3cnc(-c4c(OC)ncnc4C4CN(C)C4)nc32)cc1 [Example 101] | < 25 min | > 10 µM | < 10 µM | < 25 min |
| COc1ncnc(C2CC2)c1-c1ncc2cnn(Cc3ccc(-n4nc(C(F)(F)F)cc4N(C)C)c(F)c3)c2n1 [Example 122] | < 25 min | < 10 µM | < 10 µM | < 25 min |
| COc1ncnc(C2CC2)c1-c1ncc2cnn(Cc3ccc(-c4nc(C#N)cn4C)cc3)c2n1 [Example 69] | < 25 min | > 10 µM | > 10 µM | < 25 min |
| COc1ncnc(C2CC2)c1-c1ncc2nc(C(C)C)n(Cc3ccc(-c4nc(C(F)(F)F)cn4C(C)C)cc3)c2n1 [Example 208] | > 25 min | < 10 µM | < 10 µM | > 25 min |
| COc1ncnc(C2CC2)c1-c1ncc2cnn(Cc3ccc(-c4nc(C(F)(F)F)cn4C)cc3F)c2n1 [Example 20] | > 25 min | < 10 µM | < 10 µM | > 25 min |
| COc1ncnc(C2CC2)c1-c1ncc2cnn(Cc3ccc(-c4nc(C(F)(F)F)cn4C(C)C)cc3)c2n1 [Example 143] | > 25 min | < 10 µM | < 10 µM | > 25 min |
| COc1ncnc(C2CC2)c1-c1ncc2cnn(Cc3ccc(-n4nc(C(F)(F)F)cc4OC4CNC4)cc3)c2n1 [Example 200, 1-(4-(5-(azetidin-3-yloxy)-3-(trifluoromethyl)-1H-pyrazol-1-yl)benzyl)-6-(4-cyclopropyl-6-methoxypyrimidin-5-yl)-1H-pyrazolo[3,4-d]pyrimidine] | > 25 min | > 10 µM | > 10 µM | > 25 min |
| COc1ncnc(C2CC2)c1-c1ncc2nc(C)n(Cc3ccc(-n4nc(C(F)(F)F)cc4C)cc3)c2n1 [Example 211] | < 25 min | > 10 µM | > 10 µM | > 25 min |
| [2H]C([2H])([2H])C([2H])(n1cc(C(F)(F)F)nc1-c1ccc(Cn2ncc3cnc(-c4c(OC)ncnc4C4CC4)nc32)cc1)C([2H])([2H])[2H] [Example 140] | > 25 min | < 10 µM | < 10 µM | > 25 min |
| CCn1cc(C(F)(F)F)nc1-c1ccc(Cn2nc(C#N)c3cnc(-c4c(OC)ncnc4C4CC4)nc32)cc1 [Example 172, 6-(4-cyclopropyl-6-methoxypyrimidin-5-yl)-1-(4-(1-ethyl-4-(trifluoromethyl)-1H-imidazol-2-yl)benzyl)-1H-pyrazolo[3,4-d]pyrimidine-3-carbonitrile] | > 25 min | < 10 µM | < 10 µM | < 25 min |
| COc1ncnc(C2CC2)c1-c1ncc2cnn([C@H](C)c3ccc(-c4nc(C(F)(F)F)cn4C)cc3)c2n1 (single isomer, unassigned) [Example 93] | < 25 min | > 10 µM | > 10 µM | < 25 min |
| COc1ncnc(C2CC2)c1-c1ncc2cnn(Cc3ccc(-c4nc5c(F)cccc5n4C)cc3)c2n1 [Example 131] | > 25 min | > 10 µM | < 10 µM | > 25 min |
| COc1cccc(OC)c1-c1ncc2cnn(Cc3ccc(-c4nc(C(F)(F)F)cn4C)cc3)c2n1 [Example 4, 6-(2,6-dimethoxyphenyl)-1-(4-(1-methyl-4-(trifluoromethyl)-1H-imidazol-2-yl)benzyl)-1H-pyrazolo[3,4-d]pyrimidine] | < 25 min | > 10 µM | < 10 µM | < 25 min |
| COc1ncnc(C2CC2)c1-c1ncc2cnn(C(C)c3ccc(-c4nc(C(F)(F)F)cn4CCF)cc3)c2n1 (stereo not shown) [Example 141] | > 25 min | > 10 µM | < 10 µM | > 25 min |
| COc1ccccc1-c1ncc2cnn(Cc3ccc(-c4nc(C(F)(F)F)cn4C)cc3)c2n1 [Example 2, 6-(2-methoxyphenyl)-1-(4-(1-methyl-4-(trifluoromethyl)-1H-imidazol-2-yl)benzyl)-1H-pyrazolo[3,4-d]pyrimidine] | < 25 min | > 10 µM | < 10 µM | < 25 min |
| CCOc1cc(C(F)(F)F)nn1-c1ccc(Cn2ncc3cnc(-c4c(OC)ncnc4C4CC4)nc32)cc1 [Example 76] | > 25 min | < 10 µM | < 10 µM | > 25 min |
| COCCOc1cc(C(F)(F)F)nn1-c1ccc(Cn2ncc3cnc(-c4c(OC)ncnc4C4CC4)nc32)cc1 [Example 77] | < 25 min | < 10 µM | < 10 µM | < 25 min |
| CC(C)c1ccccc1-c1ncc2cnn(C(C)c3ccc(-c4nc(C(F)(F)F)cn4C)cc3)c2n1 (stereo not shown) [Example 24] | < 25 min | < 10 µM | < 10 µM | < 25 min |
| COc1ncnc(C2CC2)c1-c1ncc2c(OC)nn(Cc3ccc(-c4cn(C(C)C)c(C(F)(F)F)n4)cc3)c2n1 [Example 185] | > 25 min | < 10 µM | < 10 µM | > 25 min |
| COc1ncnc(C2CC2)c1-c1ncc2c(OC)nn([C@@H](C)c3ccc(-c4nc(C(F)(F)F)cn4CCF)cc3)c2n1 [Example 178] | > 25 min | < 10 µM | < 10 µM | > 25 min |
| COc1cccc(C2CC2)c1-c1ncc2cnn(Cc3ccc(-c4nc(C(F)(F)F)cn4C)cc3)c2n1 [Example 11, 6-(2-cyclopropyl-6-methoxyphenyl)-1-(4-(1-methyl-4-(trifluoromethyl)-1H-imidazol-2-yl)benzyl)-1H-pyrazolo[3,4-d]pyrimidine] | < 25 min | > 10 µM | > 10 µM | < 25 min |
| COCc1nc2cnc(-c3c(OC)ncnc3C3CC3)nc2n1Cc1ccc(-c2nc(C(F)(F)F)cn2C(C)C)cc1 [Example 207] | < 25 min | > 10 µM | > 10 µM | > 25 min |
| COc1ncnc(C)c1-c1ncc2cnn(Cc3ccc(-n4nc(C(F)(F)F)cc4C)cc3)c2n1 [Example 48] | > 25 min | > 10 µM | < 10 µM | > 25 min |
| CCn1cc(C(F)(F)F)nc1-c1ccc(Cn2ncc3cnc(-c4c(OC5CC5)ncnc4C4CC4)nc32)cc1 [Example 63] | > 25 min | > 10 µM | < 10 µM | < 25 min |
| COc1ncnc(C2CC2)c1-c1ncc2cnn(Cc3ccc(-c4nc(C(F)(F)F)c[nH]4)cc3)c2n1 [Example 134, 6-(4-cyclopropyl-6-methoxypyrimidin-5-yl)-1-(4-(4-(trifluoromethyl)-1H-imidazol-2-yl)benzyl)-1H-pyrazolo[3,4-d]pyrimidine] | > 25 min | < 10 µM | < 10 µM | > 25 min |
| COc1ncnc(C2CC2)c1-c1ncc2cnn(Cc3ccc(-c4nc(C(F)(F)F)c(OC)n4C)cc3)c2n1 [Example 165] | > 25 min | < 10 µM | < 10 µM | > 25 min |
